Patent publication US20210070748A1, “INHIBITORS OF BRUTONS TYROSINE KINASE” (Pharmacyclics LLC, priority 2015, published 2021)

Key:
Type in all cases: biochemical
ITK = target: T1, ITK (Homo sapiens, UniProt Q08881); assay: Inhibition of a panel of kinases, in vitro HotSpot kinase assay: ITK
T1 sequence (Q08881 1-620): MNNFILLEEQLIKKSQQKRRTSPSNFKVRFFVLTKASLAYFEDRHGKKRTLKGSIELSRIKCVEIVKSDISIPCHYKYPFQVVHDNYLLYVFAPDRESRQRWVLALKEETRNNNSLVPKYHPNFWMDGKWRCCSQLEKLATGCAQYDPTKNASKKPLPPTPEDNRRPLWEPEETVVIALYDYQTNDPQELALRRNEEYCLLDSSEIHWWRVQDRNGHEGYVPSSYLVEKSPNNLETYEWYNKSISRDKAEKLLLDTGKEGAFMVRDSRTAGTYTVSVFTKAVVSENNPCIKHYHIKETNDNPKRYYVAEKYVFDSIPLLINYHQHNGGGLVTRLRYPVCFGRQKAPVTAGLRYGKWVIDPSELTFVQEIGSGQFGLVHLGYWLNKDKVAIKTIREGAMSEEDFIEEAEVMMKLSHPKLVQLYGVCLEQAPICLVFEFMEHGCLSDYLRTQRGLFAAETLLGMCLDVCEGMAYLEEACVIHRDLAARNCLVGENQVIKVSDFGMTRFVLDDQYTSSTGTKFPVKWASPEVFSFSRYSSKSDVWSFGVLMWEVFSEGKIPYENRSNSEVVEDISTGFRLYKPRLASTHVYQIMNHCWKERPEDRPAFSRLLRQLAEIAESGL
Method: (§1) The degree of inhibition of a panel of kinases is determined using the in vitro HotSpot kinase assay (purified enzymes, ^33P-ATP, an appropriate substrate and 1 μM ATP).

EGFR = EGFR (Homo sapiens, UniProt P00533); assay: Inhibition of a panel of kinases, in vitro HotSpot kinase assay: EGFR
EGFR, sequence (P00533 25-1210): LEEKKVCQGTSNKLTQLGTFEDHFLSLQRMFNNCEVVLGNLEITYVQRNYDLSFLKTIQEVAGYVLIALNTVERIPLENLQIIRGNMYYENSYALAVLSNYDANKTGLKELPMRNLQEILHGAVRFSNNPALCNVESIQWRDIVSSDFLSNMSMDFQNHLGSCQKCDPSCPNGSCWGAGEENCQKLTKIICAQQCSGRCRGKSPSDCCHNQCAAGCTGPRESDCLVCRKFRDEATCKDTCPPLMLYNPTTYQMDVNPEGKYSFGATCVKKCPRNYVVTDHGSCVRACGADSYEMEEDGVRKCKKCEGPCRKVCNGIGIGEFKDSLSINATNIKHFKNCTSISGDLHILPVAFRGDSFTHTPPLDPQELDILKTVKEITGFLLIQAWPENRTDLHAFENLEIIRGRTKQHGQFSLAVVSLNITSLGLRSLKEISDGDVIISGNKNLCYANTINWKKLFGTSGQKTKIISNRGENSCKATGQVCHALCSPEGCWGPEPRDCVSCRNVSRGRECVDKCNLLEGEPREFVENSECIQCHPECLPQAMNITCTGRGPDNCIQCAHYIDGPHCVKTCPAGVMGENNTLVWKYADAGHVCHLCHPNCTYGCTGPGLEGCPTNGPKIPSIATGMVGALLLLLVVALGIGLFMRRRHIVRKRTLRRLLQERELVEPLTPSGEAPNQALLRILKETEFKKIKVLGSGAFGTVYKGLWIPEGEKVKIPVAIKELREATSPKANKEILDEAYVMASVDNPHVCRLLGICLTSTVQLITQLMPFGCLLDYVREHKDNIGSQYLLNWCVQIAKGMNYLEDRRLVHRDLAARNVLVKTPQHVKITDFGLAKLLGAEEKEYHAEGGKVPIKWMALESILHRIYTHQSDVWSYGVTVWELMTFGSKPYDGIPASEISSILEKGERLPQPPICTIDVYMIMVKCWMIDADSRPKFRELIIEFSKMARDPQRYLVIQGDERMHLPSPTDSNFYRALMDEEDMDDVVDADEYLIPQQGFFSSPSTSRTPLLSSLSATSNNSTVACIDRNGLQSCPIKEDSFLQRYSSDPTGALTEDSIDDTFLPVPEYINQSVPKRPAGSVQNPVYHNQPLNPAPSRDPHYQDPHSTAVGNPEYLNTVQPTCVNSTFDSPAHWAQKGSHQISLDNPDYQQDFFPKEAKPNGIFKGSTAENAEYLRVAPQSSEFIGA
Method: as §1

SRC = SRC (Homo sapiens, UniProt P12931); assay: Inhibition of a panel of kinases, in vitro HotSpot kinase assay: SRC
SRC, sequence (P12931 whole entry): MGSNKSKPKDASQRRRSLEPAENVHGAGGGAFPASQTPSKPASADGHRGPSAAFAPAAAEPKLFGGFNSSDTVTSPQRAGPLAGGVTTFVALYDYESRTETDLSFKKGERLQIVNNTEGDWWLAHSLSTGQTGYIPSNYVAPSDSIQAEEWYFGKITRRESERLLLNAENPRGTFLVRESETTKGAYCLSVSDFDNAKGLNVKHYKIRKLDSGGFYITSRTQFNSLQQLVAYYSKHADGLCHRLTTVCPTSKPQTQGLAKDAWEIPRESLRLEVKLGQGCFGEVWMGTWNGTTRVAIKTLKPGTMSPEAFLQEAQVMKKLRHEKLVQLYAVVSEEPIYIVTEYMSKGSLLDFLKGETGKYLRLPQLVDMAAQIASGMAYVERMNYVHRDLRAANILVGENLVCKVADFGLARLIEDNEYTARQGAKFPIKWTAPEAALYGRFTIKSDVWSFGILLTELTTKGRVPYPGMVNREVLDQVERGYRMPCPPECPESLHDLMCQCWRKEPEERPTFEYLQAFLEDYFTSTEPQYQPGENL
Method: as §1

TEC = target: T2, TEC (Homo sapiens, UniProt P42680); assay: Inhibition of a panel of kinases, in vitro HotSpot kinase assay: TEC
T2 sequence (P42680 1-631): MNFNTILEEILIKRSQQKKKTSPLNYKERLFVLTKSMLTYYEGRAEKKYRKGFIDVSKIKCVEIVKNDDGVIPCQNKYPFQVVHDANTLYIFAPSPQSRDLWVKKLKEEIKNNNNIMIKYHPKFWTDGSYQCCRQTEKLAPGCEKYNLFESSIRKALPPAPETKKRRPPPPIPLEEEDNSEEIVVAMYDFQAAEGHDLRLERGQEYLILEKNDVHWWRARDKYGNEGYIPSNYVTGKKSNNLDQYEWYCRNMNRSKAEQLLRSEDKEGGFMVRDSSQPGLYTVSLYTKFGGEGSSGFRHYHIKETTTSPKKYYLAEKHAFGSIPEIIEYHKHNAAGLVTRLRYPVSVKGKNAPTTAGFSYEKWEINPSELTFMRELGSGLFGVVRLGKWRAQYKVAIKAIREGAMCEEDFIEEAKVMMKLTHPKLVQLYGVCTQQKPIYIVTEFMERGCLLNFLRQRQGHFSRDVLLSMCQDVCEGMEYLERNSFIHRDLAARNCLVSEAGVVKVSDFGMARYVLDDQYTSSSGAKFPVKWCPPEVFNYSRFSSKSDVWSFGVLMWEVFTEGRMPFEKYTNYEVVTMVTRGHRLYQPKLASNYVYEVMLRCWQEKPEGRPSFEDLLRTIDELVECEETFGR
Method: as §1

[1] = Table 13, A compounds, 1 μM ATP

IC50 (ITK; [1]) [nM]	IC50 (EGFR; [1]) [nM]	IC50 (SRC; [1]) [nM]	IC50 (TEC; [1]) [nM]	IC50 (EGFR; E compounds, Table 17) [nM]	IC50 (SRC; E compounds, Table 17) [nM]	SMILES	IC50 (ITK; E compounds, Table 17) [nM]	IC50 (TEC; E compounds, Table 17) [nM]
100 to 1000	100 to 1000	100 to 1000	10 to 100	–	–	C[C@@H]1[C@H](NC(=O)c2ccc(C3CC3)cc2F)CCCN1c1cnc(C(N)=O)c(Nc2ccc(CN3CCN(C)CC3)cc2)n1 [Example A-106, 5-[(2R,3R)-3-(4-cyclopropyl-2-fluorobenzamido)-2-methylpiperidin-1-yl]-3-({4-[(4-methylpiperazin-1-yl)meth-yl]phenyl}amino)pyrazine-2-carboxamide]	–	–
> 10000	> 10000	> 10000	> 10000	–	–	Cc1cc(Nc2nc(N3CCC[C@@H](n4ccc5cc(C6CC6)ccc5c4=O)C3)cnc2C(N)=O)sn1 [Example A-107, 5-[(3R)-3-(6-cyclopropyl-1-oxo-1,2-dihydroisoquinolin-2-yl)piperidin-1-yl]-3-[(3-methyl-1,2-thiazol-5-yl)amino]pyrazine-2-carboxamide]	–	–
> 10000	> 10000	> 10000	100 to 1000	–	–	C[C@@H]1[C@H](NC(=O)c2ccc(C3CC3)cc2F)CCCN1c1cnc(C(N)=O)c(Nc2nc3c(s2)CN(C)CC3)n1 [Example A-108, 5-[(2R,3R)-3-(4-cyclopropyl-2-fluorobenzamido)-2-methylpiperidin-1-yl]-3-({5-methyl-4H,5H,6H,7H-[1,3]thiazolo[5,4-c]pyridin-2-yl}amino)pyrazine-2-carboxamide]	–	–
100 to 1000	1000 to 10000	100 to 1000	10 to 100	–	–	C[C@@H]1[C@H](NC(=O)c2ccc(C3CC3)cc2F)CCCN1c1cnc(C(N)=O)c(Nc2cnn(C)c2)n1 [Example A-110, 5-[(2R,3R)-3-(4-cyclopropyl-2-fluorobenzamido)-2-methylpiperidin-1-yl]-3-[(1-methyl-1H-pyrazol-4-yl)amino]pyrazine-2-carboxamide]	–	–
100 to 1000	1000 to 10000	100 to 1000	10 to 100	–	–	CN1CCN(Cc2ccc(Nc3nc(N4CCC[C@@H](n5ccc6cc(C7CC7)ccc6c5=O)C4)cnc3C(N)=O)cc2)CC1 [Example A-111, 5-[(3R)-3-(6-cyclopropyl-1-oxo-1,2-dihydroisoquinolin-2-yl)piperidin-1-yl]-3-({4-[(4-methylpiperazin-1-yl)meth-yl]phenyl}amino)pyrazine-2-carboxamide]	–	–
100 to 1000	100 to 1000	100 to 1000	10 to 100	–	–	CN1CCN(C(=O)c2ccc(Nc3nc(N4CCC[C@@H](n5ccc6cc(C7CC7)ccc6c5=O)C4)cnc3C(N)=O)cc2)CC1 [Example A-115, 5-[(3R)-3-(6-cyclo-propyl-1-oxo-1,2-dihydroisoquinolin-2-yl)piperidin-1-yl]-3-{[4-(4-methylpiperazine-1-carbonyl)phenyl]amino}pyr-azine-2-carboxamide]	–	–
100 to 1000	100 to 1000	100 to 1000	10 to 100	–	–	C[C@@H]1[C@H](NC(=O)c2ccc(C3CC3)cc2F)CCCN1c1cnc(C(N)=O)c(Nc2ccc(C(=O)N3CCN(C)CC3)cc2)n1 [Example A-122, 5-[(2R,3R)-3-(4-cyclopropyl-2-fluorobenzamido)-2-methylpiperidin-1-yl]-3-{[4-(4-methylpiperazine-1-carbonyl)phenyl]amino}pyr-azine-2-carboxamide]	–	–
100 to 1000	100 to 1000	10 to 100	10 to 100	–	–	C[C@@H]1[C@H](NC(=O)c2ccc(C3CC3)cc2F)CCCN1c1cnc(C(N)=O)c(Nc2ccc(N3CCN(C4CCCC4)CC3)cc2)n1 [Example A-125, 3-{[4-(4-cyclopentylpiperazin-1-yl)phenyl]amino}-5-[(2R,3R)-3-(4-cyclopropyl-2-fluorobenzamido)-2-methylpiperidin-1-yl]pyrazine-2-carboxamide]	–	–
1000 to 10000	1000 to 10000	100 to 1000	100 to 1000	–	–	C[C@@H]1[C@H](NC(=O)c2ccc(C3CC3)cc2F)CCCN1c1cnc(C(N)=O)c(Nc2cnn(C)c2)c1 [Example A-127, 5-[(2R,3R)-3-(4-cyclopropyl-2-fluorobenzamido)-2-methylpiperidin-1-yl]-3-[(1-methyl-1H-pyrazol-4-yl)amino]pyridine-2-carboxamide]	–	–
–	–	–	–	–	–	C=CC(=O)N[C@@H]1CCCN(c2nnc(C(N)=O)c(Nc3ccc(C4(C)CCN(C5CC5)CC4)cc3)n2)[C@@H]1C [Example E-2, 3-((2R,3R)-3-acrylamido-2-methylpiperidin-1-yl)-5-((4-(1-cyclopropyl-4-methylpiperidin-4-yl)phenyl)amino)-1,2,4-triazine-6-carboxamide]	10 to 100	≤ 10
–	–	–	–	–	–	C=CC(=O)N[C@@H]1CCCN(c2nnc(C(N)=O)c(Nc3ccc(Cl)cc3)n2)[C@@H]1C [Example E-5, 3-((2R,3R)-3-acrylamido-2-methylpiperidin-1-yl)-5-((4-chlorophenyl)amino)-1,2,4-triazine-6-carboxamide]	10 to 100	≤ 10
–	–	–	–	–	–	C=CC(=O)N1CCC[C@@H](Nc2nnc(C(N)=O)c(Nc3ccc(Cl)cc3)n2)[C@H]1C [Example E-7, 3-(((2R,3R)-1-acryloyl-2-methylpiperidin-3-yl)amino)-5-((4-chlorophenyl)amino)-1,2,4-triazine-6-carboxamide]	≤ 10	≤ 10
–	–	–	–	≤ 10	–	C=CC(=O)N1CCC[C@@H](Nc2nnc(C(N)=O)c(Nc3ccc(C(C)(C)C)cc3)n2)C1 [Example E-24, (R)-3-(1-acryloylpiperidin-3-ylamino)-5-(4-tert-butylphenylamino)-1,2,4-triazine-6-carboxamide]	≤ 10	≤ 10
–	–	–	–	–	100 to 1000	C=CC(=O)N1CCC[C@@H](N(C)c2cnc(C(N)=O)c(Nc3ccc(C(C)C)cc3)n2)C1 [Example E-102, (R)-5-((1-acryloylpiperidin-3-yl)(methyl)amino)-3-(4-isopropylphenylamino) pyrazine-2-carboxamide]	10 to 100	≤ 10
–	–	–	–	–	10 to 100	CC(C)c1ccc(Nc2nc(N3CCC[C@@H](N4CCC[C@@H](Nc5cc(Cl)cc(C(F)(F)F)c5)C4=O)C3)nnc2C(N)=O)cc1 [Example E-128, 3-((3R,3′R)-3-((3-chloro-5-(trifluoromethyl)phenyl)amino)-2-oxo-[1,3′-bipiperidin]-1′-yl)-5-((4-isopropylphenyl)amino)-1,2,4-triazine-6-carboxamide]	10 to 100	1000 to 10000

SMILES	IC50 (ITK; [1]) [nM]	IC50 (EGFR; [1]) [nM]	IC50 (SRC; [1]) [nM]	IC50 (TEC; [1]) [nM]	IC50 (EGFR; E compounds, Table 17) [nM]	IC50 (SRC; E compounds, Table 17) [nM]	IC50 (ITK; E compounds, Table 17) [nM]	IC50 (TEC; E compounds, Table 17) [nM]
CN(C)C(=O)N[C@@H]1CCCN(c2cnc(C(N)=O)c(Nc3ccc(C4(C)CCN(C5CCCC5)CC4)cc3)n2)[C@@H]1CO [Example A-101, 3-{[4-(1-cyclopentyl-4-methylpiperidin-4-yl)phenyl]amino}-5-[(2S,3R)-3-[(dimethylcarbamoyl)amino]-2-(hydroxymethyl)piperidin-1-yl]pyrazine-2-carboxamide]	1000 to 10000	100 to 1000	100 to 1000	100 to 1000	–	–	–	–
C[C@@H]1[C@H](NC(=O)c2ccc(C3CC3)cc2F)CCCN1c1cnc(C(N)=O)c(Nc2ccc(C3(C)CCN(C4CCCC4)CC3)cc2)n1 [Example A-121, 3-{[4-(1-cyclopentyl-4-methylpiperidin-4-yl)phenyl]amino}-5-[(2R,3R)-3-(4-cyclopropyl-2-fluorobenzamido)-2-methylpiperidin-1-yl]pyrazine-2-carboxamide]	10 to 100	10 to 100	≤ 10	≤ 10	–	–	–	–
C=CC(=O)N1CCC[C@@H](Nc2nnc(C(N)=O)c(Nc3ccc(C4(C)CCN(C5CC5)CC4)cc3)n2)[C@H]1C [Example E-127, 3-(((2R,3R)-1-acryloyl-2-methylpiperidin-3-yl)amino)-5-((4-(1-cyclopropyl-4-methylpiperidin-4-yl)phenyl)amino)-1,2,4-triazine-6-carboxamide]	–	–	–	–	–	≤ 10	≤ 10	≤ 10
